The values that follow come from patent US12077503B2, “Substituted cyclic amides and their use as herbicides” (FMC CORPORATION, priority 2015, dated 2024).

Common to all, as to type: in vivo
In assay [1] the test system is barnyardgrass (Echinochloa crus-galli). Kind of assay: Test A preemergence. Particulars: Echinochloa crus-galli, pre-emergence, 240 h; for pest or weed control at 125 g/ha: 125 g ai/ha, 0 to 100 scale where 0 is no effect and 100 is complete control; for pest or weed control at 500 g/ha: 500 g ai/ha. The procedure, abridged: (§1)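 Seeded soil received test chemicals as a preemergence directed spray, and seedlings at one to two leaves, 2–10 cm tall, received them postemergence, in a non-phytotoxic, surfactant-containing solvent mixture. Pots were held in a greenhouse for approximately 10 d, then rated for injury from 0, no effect, to 100, complete control.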

Assay [2] concerns giant foxtail (Setaria faberii). Kind of assay: Test A preemergence. Particulars: Setaria faberi, pre-emergence, 240 h; for pest or weed control at 125 g/ha: 125 g ai/ha, 0 to 100 scale where 0 is no effect and 100 is complete control; for pest or weed control at 500 g/ha: 500 g ai/ha. The procedure, abridged:
as §1

Assay [3] relates to ryegrass, Italian (Italian ryegrass, Lolium multiflorum). In words: Test A preemergence. Particulars: Lolium multiflorum, pre-emergence, 240 h; for pest or weed control at 500 g/ha: 500 g ai/ha; for pest or weed control at 125 g/ha: 125 g ai/ha, 0 to 100 scale where 0 is no effect and 100 is complete control. Put shortly:
as §1

Assay [4] concerns ragweed (common ragweed, Ambrosia elatior). Kind of assay: Test A preemergence. Particulars: Ambrosia artemisiifolia, pre-emergence, 240 h; for pest or weed control at 500 g/ha: 500 g ai/ha; for pest or weed control at 125 g/ha: 125 g ai/ha, 0 to 100 scale where 0 is no effect and 100 is complete control. Put shortly: as §1
For assay [5], the system named is pigweed (Amaranthus retroflexus). Kind of assay: Test A preemergence. Particulars: Amaranthus retroflexus, pre-emergence, 240 h; for pest or weed control at 125 g/ha: 125 g ai/ha, 0 to 100 scale where 0 is no effect and 100 is complete control; for pest or weed control at 500 g/ha: 500 g ai/ha.
Another assay concerns Kochia (Kochia scoparia). In words: Test A preemergence. Particulars: Bassia scoparia, pre-emergence, 240 h; for pest or weed control at 125 g/ha: 125 g ai/ha, 0 to 100 scale where 0 is no effect and 100 is complete control; for pest or weed control at 500 g/ha: 500 g ai/ha. Put shortly: as §1
In assay [6] the test system is barnyardgrass (Echinochloa crus-galli). Kind of assay: Test A postemergence. As to conditions: Echinochloa crus-galli, post-emergence, 240 h, 125 g ai/ha. The procedure, abridged: as §1
Another assay has as its system corn (Zea mays). Kind of assay: Test A postemergence. Particulars: Zea mays, post-emergence, 240 h, 125 g ai/ha; for Corn plant response rating (crop injury, 0 = no effect, 100 = complete kill) at 125 g/ha: Postemergence, visual injury after approximately 10 d, 0 to 100 scale where 0 is no effect and 100 is complete control. The procedure, abridged:
as §1

For assay [7], the system named is giant foxtail (Setaria faberii). Kind of assay: Test A postemergence. Particulars: Setaria faberi, post-emergence, 240 h, 125 g ai/ha. The procedure, abridged: as §1
In assay [8] the test system is Galium (catchweed bedstraw, Galium aparine). Kind of assay: Test A postemergence. As to conditions: Galium, post-emergence, 240 h, 125 g ai/ha. Put shortly:
as §1

Assay [9] concerns ryegrass, Italian (Italian ryegrass, Lolium multiflorum). In words: Test A postemergence. As to conditions: Lolium multiflorum, post-emergence, 240 h, 125 g ai/ha. The procedure, abridged: as §1
Assay [10] relates to wheat (Triticum aestivum). In words: Test A postemergence. As to conditions: Triticum aestivum, post-emergence, 240 h, 125 g ai/ha. Put shortly: as §1
The subject of assay [11] is blackgrass (Alopecurus myosuroides). Kind of assay: Test A postemergence. Particulars: Alopecurus myosuroides, post-emergence, 240 h, 125 g ai/ha. Put shortly:
as §1

Assay [12] deals with ragweed (common ragweed, Ambrosia elatior). Kind of assay: Test A postemergence. Particulars: Ambrosia artemisiifolia, post-emergence, 240 h, 125 g ai/ha. Put shortly:
as §1

The test system of assay [13] is pigweed (Amaranthus retroflexus). Kind of assay: Test A postemergence. Particulars: Amaranthus retroflexus, post-emergence, 240 h, 125 g ai/ha. Put shortly:
as §1

Where [14] appears, read: preemergence, read-out: Barnyardgrass plant response rating.
[15] abbreviates: preemergence, read-out: Foxtail, Giant plant response rating.
Setting [16] is: preemergence, read-out: Pigweed plant response rating.
Setting [17] is: preemergence, read-out: Kochia plant response rating.
Where [18] appears, read: Postemergence, visual injury after approximately 10 d, 0 to 100 scale where 0 is no effect and 100 is complete control, read-out: Plant response rating, Barnyardgrass.
The mark [19] stands for this setting: Postemergence, visual injury after approximately 10 d, 0 to 100 scale where 0 is no effect and 100 is complete control, read-out: Plant response rating, Foxtail, Giant.
Where [20] appears, read: Postemergence, visual injury after approximately 10 d, 0 to 100 scale where 0 is no effect and 100 is complete control, read-out: Plant response rating, Galium.
Setting [21] is: Postemergence, visual injury after approximately 10 d, 0 to 100 scale where 0 is no effect and 100 is complete control, read-out: Plant response rating, Ryegrass, Italian.
The mark [22] stands for this setting: Postemergence, visual injury after approximately 10 d, 0 to 100 scale where 0 is no effect and 100 is complete control, read-out: Plant response rating, Wheat.
Setting [23] is: Postemergence, visual injury after approximately 10 d, 0 to 100 scale where 0 is no effect and 100 is complete control, read-out: Plant response rating, Blackgrass.
[24] abbreviates: Postemergence, visual injury after approximately 10 d, 0 to 100 scale where 0 is no effect and 100 is complete control, read-out: Plant response rating, Ragweed.
[25] abbreviates: Postemergence, visual injury after approximately 10 d, 0 to 100 scale where 0 is no effect and 100 is complete control, read-out: Plant response rating, Pigweed.
The mark [26] stands for this setting: Preemergence, visual injury vs untreated controls after approximately 10 d, read-out: Barnyardgrass plant response rating (0 to 100 scale where 0 is no effect and 100 is complete control).
[27] abbreviates: Preemergence, visual injury vs untreated controls after approximately 10 d, read-out: Foxtail, Giant plant response rating (0 to 100 scale where 0 is no effect and 100 is complete control).
The mark [28] stands for this setting: preemergence, read-out: Ryegrass, Italian plant response rating.
Setting [29] is: Preemergence, visual injury vs untreated controls after approximately 10 d, read-out: Ryegrass, Italian plant response rating (0 to 100 scale where 0 is no effect and 100 is complete control).
Setting [30] is: preemergence, read-out: Ragweed plant response rating.
[31] abbreviates: Preemergence, visual injury vs untreated controls after approximately 10 d, read-out: Ragweed plant response rating (0 to 100 scale where 0 is no effect and 100 is complete control).
[32] abbreviates: Preemergence, visual injury vs untreated controls after approximately 10 d, read-out: Pigweed plant response rating (0 to 100 scale where 0 is no effect and 100 is complete control).
Setting [33] is: Preemergence, visual injury vs untreated controls after approximately 10 d, read-out: Kochia plant response rating (0 to 100 scale where 0 is no effect and 100 is complete control).

Read-outs that look alike come from different tables or passages of the source.

Take `Cc1cccc(NC(=O)[C@H]2C(=O)N(C)C[C@@H]2c2ccc(C(F)(F)F)cc2)c1C` [Compound 941]: the pest or weed control at 125 g/ha in assay [1] (setting [14]) is 80%; in assay [2] (setting [15]) it was 90%; in [5] (setting [16]), 0%; in the assay with Kochia (Kochia scoparia) (setting [17]), 0%; in [6] (setting [18]), 50%; in assay [7] (setting [19]) it was 60%. Moreover, the pest or weed control at 125 g/ha was found to be 20% in assay [8] (setting [20]); 0% in assay [9] (setting [21]); 0% in assay [11] (setting [23]); 0% in [12] (setting [24]); 0% in assay [13] (setting [25]). Moreover, the pest or weed control at 500 g/ha amounted to 90% in [1] (preemergence, visual injury rating about 10 d after treatment, 0 to 100 scale (0 no effect, 100 complete control), read-out: Barnyardgrass plant response rating); 90% in assay [2] (preemergence, visual injury rating about 10 d after treatment, 0 to 100 scale (0 no effect, 100 complete control), read-out: Foxtail, Giant plant response rating); 0% in assay [3] (preemergence, visual injury rating about 10 d after treatment, 0 to 100 scale (0 no effect, 100 complete control), read-out: Ryegrass, Italian plant response rating); 30% in assay [4] (preemergence, visual injury rating about 10 d after treatment, 0 to 100 scale (0 no effect, 100 complete control), read-out: Ragweed plant response rating); 0% in assay [5] (preemergence, visual injury rating about 10 d after treatment, 0 to 100 scale (0 no effect, 100 complete control), read-out: Pigweed plant response rating); 0% with Kochia (Kochia scoparia) (preemergence, visual injury rating about 10 d after treatment, 0 to 100 scale (0 no effect, 100 complete control), read-out: Kochia plant response rating). The molecule further displayed a Corn plant response rating (crop injury, 0 = no effect, 100 = complete kill) at 125 g/ha in the assay on corn (Zea mays) of 0%. Moreover, the plant injury at 125 g/ha in [10] (setting [22]) came to 0%.

Consider `COc1ccc([C@H]2CN(C)C(=O)[C@@H]2C(=O)Nc2ccccc2SC)cc1OC` [Compound 854], for which the pest or weed control at 125 g/ha came to 0% in [1] (setting [14]); 50% in assay [2] (setting [15]); 0% in [3] (setting [28]); 0% in assay [4] (setting [30]); 0% in [5] (setting [16]); 0% in the assay with Kochia (Kochia scoparia) (setting [17]). Besides, the pest or weed control at 125 g/ha in assay [6] (postemergence, visual injury rating after approximately 10 d, read-out: Barnyardgrass plant response rating (0 to 100 scale, 0 no effect, 100 complete control)) stood at 0%; in assay [7] (postemergence, visual injury rating after approximately 10 d, read-out: Foxtail, Giant plant response rating (0 to 100 scale, 0 no effect, 100 complete control)) it was 50%; in assay [8] (postemergence, visual injury rating after approximately 10 d, read-out: Galium plant response rating (0 to 100 scale, 0 no effect, 100 complete control)), 0%; in assay [9] (postemergence, visual injury rating after approximately 10 d, read-out: Ryegrass, Italian plant response rating (0 to 100 scale, 0 no effect, 100 complete control)), 0%; in assay [11] (postemergence, visual injury rating after approximately 10 d, read-out: Blackgrass plant response rating (0 to 100 scale, 0 no effect, 100 complete control)), 0%; in assay [12] (postemergence, visual injury rating after approximately 10 d, read-out: Ragweed plant response rating (0 to 100 scale, 0 no effect, 100 complete control)), 0%. For the same molecule, the pest or weed control at 125 g/ha in assay [13] (postemergence, visual injury rating after approximately 10 d, read-out: Pigweed plant response rating (0 to 100 scale, 0 no effect, 100 complete control)) turned out to be 0%. Also, the pest or weed control at 500 g/ha in [1] (setting [26]) is 80%; in [2] (setting [27]) it was 80%; in assay [3] (setting [29]), 0%; in assay [4] (setting [31]), 0%; in [5] (setting [32]) it was 0%; in the assay on Kochia (Kochia scoparia) (setting [33]), 0%. The plant injury at 125 g/ha worked out at 0% in the assay on corn (Zea mays) (postemergence, visual injury rating after approximately 10 d, read-out: Corn plant response rating (0 to 100 scale, 0 no effect, 100 complete control)) and 0% in assay [10] (postemergence, visual injury rating after approximately 10 d, read-out: Wheat plant response rating (0 to 100 scale, 0 no effect, 100 complete control)).

`CON1CC[C@H](c2ccc(F)cc2)[C@@H](C(=O)Nc2cccc(F)c2F)C1=O` [Compound 918]: the pest or weed control at 125 g/ha in assay [1] (setting [14]) was 0%; in [2] (setting [15]), 20%; in assay [3] (setting [28]), 0%; in assay [4] (setting [30]), 0%; in [5] (setting [16]), 0%; with Kochia (Kochia scoparia) (setting [17]) it was 0%. In addition, the pest or weed control at 125 g/ha in [6] (setting [18]) came to 0%; in [7] (setting [19]), 0%; in assay [8] (setting [20]), 0%; in assay [9] (setting [21]), 0%; in assay [11] (setting [23]) it was 40%; in assay [12] (setting [24]), 0%. Also, in assay [13] (setting [25]), the pest or weed control at 125 g/ha was determined as 0%. Moreover, the pest or weed control at 500 g/ha in [1] (setting [26]) amounted to 40%; in [2] (setting [27]) it was 70%; in assay [3] (setting [29]), 0%; in assay [4] (setting [31]) it was 0%; in assay [5] (setting [32]), 0%; in the assay with Kochia (Kochia scoparia) (setting [33]), 0%. For the same molecule, the Corn plant response rating (crop injury, 0 = no effect, 100 = complete kill) at 125 g/ha with corn (Zea mays) worked out at 0%. In addition, the plant injury at 125 g/ha in assay [10] (setting [22]) amounted to 0%.
